Measurements as given in US5093475A (priority 1989, dated 1992).
Counter-ions that a name gives are not always drawn. Marks after values point to notes of the source that are not given here.

System: not listed separately
Assay: Rate of reaction of the 2-iminothiolanes with glycine, coupled with DTNB, 412nm
Assay type: physicochemical
Conditions: 160 mM glycine, 0.5 mM DTNB, PBS pH 7.2; 25° C.
Description: b. The rate of reaction of the 2-iminothiolanes with 160 mM glycine in PBS (pH 7.2), monitored by coupling the reaction with 0.5 mM DTNB and following the change in absorbance at 412nm.

Structure (SMILES)	Reaction rate, Glycine, k × 10^3
CC(C)(C)C1CCC(=N)S1.Cl (stereo not drawn) [t-butyl-2IT, 5-t-Butyl-2-iminothiolane hydrochloride]	4.4 s^-1 (k × 10^3)
Cl.N=C1CCC2(CCCCC2)S1 [spiro-2IT, 2-Imino-1-thiaspiro[4.5]decane hydrochloride]	3.0 s^-1 (k × 10^3)
N=C1CC2CCCCC2S1 (stereo not drawn) [ring-2IT, hydrochloride]	3.4 s^-1 (k × 10^3)
CC1CCC(=N)S1.Cl (stereo not drawn) [methyl-2IT, 5-Methyl-2-iminothiolane hydrochloride]	4.8 s^-1 (k × 10^3)
CC1(C)CCC(=N)S1.Cl [dimethyl-2IT, 5,5-Dimethyl-2-iminothiolane hydrochloride]	3.5 s^-1 (k × 10^3)
Cl.N=C1CCC(c2ccccc2)S1 (stereo not drawn) [phenyl-2IT, 5-Phenyl-2-iminothiolane hydrochloride]	5.2 s^-1 (k × 10^3)
Cl.N=C1CCCS1 [Compound 2IT, 2-iminothiolane hydrochloride, reference compound]	5.3 s^-1 (k × 10^3)

System: not listed separately
Assay: Glutathione-induced TNB release from 791/iminothiolane/TNB (disulfide stability)
Assay type: physicochemical
Conditions: TNB release from 791/linker/TNB by glutathione
Description: d. The initial rate of TNB release from 791/iminothiolane/TNB induced by glutathione. Samples contained ca. 10 μM of protein-S-S-TNB and 200 μM of glutathione in PBS containing 0.5 mM EDTA, pH 7.25, and were monitored at 412nm. FIG. 1 presents the results graphically.
The relative increase in disulfide stability was also compared to 791/SPDP/TNB, and was determined as for 2IT.
791/SPDP/TNB was prepared by derivatizing 791 mAb with SPDP following conventional procedures and conditions, removing any byproducts by gel filtration, releasing the PDP group with 1 mM DTT, and then reacting the liberated sulfhydryl with DTNB. Following gel filtration, the rate of TNB release was measured as in Example 19d above.

Structure (SMILES)	rate constant for unsubstituted 2-iminothiolane
Cl.N=C1CCCS1 [Compound 2IT, 2-iminothiolane hydrochloride, reference compound]	9.42×10^-3

Same assay, conditions: ca. 10 μM protein-S-S-TNB, 200 μM glutathione, PBS, 0.5 mM EDTA, pH 7.25; 25° C.

Structure (SMILES)	Reaction rate, TNB, k × 10^5 (initial rate of TNB release from 791/linker/TNB)
CC(C)(C)C1CCC(=N)S1.Cl (stereo not drawn) [t-butyl-2IT, 5-t-Butyl-2-iminothiolane hydrochloride]	16.4 s^-1 (k × 10^5)
Cl.N=C1CCC2(CCCCC2)S1 [spiro-2IT, 2-Imino-1-thiaspiro[4.5]decane hydrochloride]	0.11 s^-1 (k × 10^5)
N=C1CC2CCCCC2S1 (stereo not drawn) [ring-2IT, hydrochloride]	82.1 s^-1 (k × 10^5)
CC1CCC(=N)S1.Cl (stereo not drawn) [methyl-2IT, 5-Methyl-2-iminothiolane hydrochloride]	75.3 s^-1 (k × 10^5)
CC1(C)CCC(=N)S1.Cl [dimethyl-2IT, 5,5-Dimethyl-2-iminothiolane hydrochloride]	0.13 s^-1 (k × 10^5)
Cl.N=C1CCC(c2ccccc2)S1 (stereo not drawn) [phenyl-2IT, 5-Phenyl-2-iminothiolane hydrochloride]	45.8 s^-1 (k × 10^5)
Cl.N=C1CCCS1 [Compound 2IT, 2-iminothiolane hydrochloride, reference compound]	942.0 s^-1 (k × 10^5)

Same assay, conditions: ratio of TNB release rate constants

Structure (SMILES)	Increase in Disulfide Stability Relative to: 2IT
CC(C)(C)C1CCC(=N)S1.Cl (stereo not drawn) [t-butyl-2IT, 5-t-Butyl-2-iminothiolane hydrochloride]	57.4
Cl.N=C1CCC2(CCCCC2)S1 [spiro-2IT, 2-Imino-1-thiaspiro[4.5]decane hydrochloride]	8564.0
N=C1CC2CCCCC2S1 (stereo not drawn) [ring-2IT, hydrochloride]	11.5
CC1CCC(=N)S1.Cl (stereo not drawn) [methyl-2IT, 5-Methyl-2-iminothiolane hydrochloride]	12.5
CC1(C)CCC(=N)S1.Cl [dimethyl-2IT, 5,5-Dimethyl-2-iminothiolane hydrochloride]	7246.0
Cl.N=C1CCC(c2ccccc2)S1 (stereo not drawn) [phenyl-2IT, 5-Phenyl-2-iminothiolane hydrochloride]	20.6
Cl.N=C1CCCS1 [Compound 2IT, 2-iminothiolane hydrochloride, reference compound]	1.0
O=C(CCSSc1ccccn1)ON1C(=O)CCC1=O [SPDP, N-succinimidyl-3-(2-pyridyldithio)propionate, reference compound]	3.6

Same assay, conditions: ratio of TNB release rate constants, vs 791/SPDP/TNB

Structure (SMILES)	Increase in Disulfide Stability Relative to: SPDP
CC(C)(C)C1CCC(=N)S1.Cl (stereo not drawn) [t-butyl-2IT, 5-t-Butyl-2-iminothiolane hydrochloride]	16.2
Cl.N=C1CCC2(CCCCC2)S1 [spiro-2IT, 2-Imino-1-thiaspiro[4.5]decane hydrochloride]	2418.0
N=C1CC2CCCCC2S1 (stereo not drawn) [ring-2IT, hydrochloride]	3.2
CC1CCC(=N)S1.Cl (stereo not drawn) [methyl-2IT, 5-Methyl-2-iminothiolane hydrochloride]	3.5
CC1(C)CCC(=N)S1.Cl [dimethyl-2IT, 5,5-Dimethyl-2-iminothiolane hydrochloride]	2046.0
Cl.N=C1CCC(c2ccccc2)S1 (stereo not drawn) [phenyl-2IT, 5-Phenyl-2-iminothiolane hydrochloride]	5.8
Cl.N=C1CCCS1 [Compound 2IT, 2-iminothiolane hydrochloride, reference compound]	0.3
O=C(CCSSc1ccccn1)ON1C(=O)CCC1=O [SPDP, N-succinimidyl-3-(2-pyridyldithio)propionate, reference compound]	1.0

System: not given
Assay: not given
Conditions: Thorpe et al., Cancer Res. 47:5924-5931, 1987; cited from earlier work

Structure (SMILES)	stability of disulfide bond in vivo, in words
CC(SSc1ccccn1)c1ccc(C(=O)ON2C(=O)CCC2=O)cc1 (stereo not drawn) [SMPT, 4-succinimidyloxycarbonyl-α-methyl-α-(2-pyridyldithio)-toluene]	appear to have more stable disulfide linkages in vivo
CC(SS(=O)(=O)O)c1ccc(C(=O)ON2C(=O)CCC2=O)cc1 (stereo not drawn) [SMBT, sodium S-4-succinimidyloxycarbonyl-α-methyl benzyl thiosulfate]	appear to have more stable disulfide linkages in vivo
Cl.N=C1CCCS1 [Compound 2IT, 2-iminothiolane hydrochloride, reference compound]	unstable in vivo
O=C(CCSSc1ccccn1)ON1C(=O)CCC1=O [SPDP, N-succinimidyl-3-(2-pyridyldithio)propionate, reference compound]	unstable in vivo

System: not listed separately
Assay: Hydrolysis of the 2-iminothiolane rings in PBS (pH 7.2), monitored at 248nm
Assay type: physicochemical
Conditions: 25° C.
Excerpt: a. The rate of hydrolysis of the 2-iminothiolane rings in PBS (pH 7.2), monitored at 248nm.

Structure (SMILES)	Reaction rate, Hydrolysis [%/hr]
CC(C)(C)C1CCC(=N)S1.Cl (stereo not drawn) [t-butyl-2IT, 5-t-Butyl-2-iminothiolane hydrochloride]	6.1
Cl.N=C1CCC2(CCCCC2)S1 [spiro-2IT, 2-Imino-1-thiaspiro[4.5]decane hydrochloride]	5.6
N=C1CC2CCCCC2S1 (stereo not drawn) [ring-2IT, hydrochloride]	13.4
CC1CCC(=N)S1.Cl (stereo not drawn) [methyl-2IT, 5-Methyl-2-iminothiolane hydrochloride]	5.4
CC1(C)CCC(=N)S1.Cl [dimethyl-2IT, 5,5-Dimethyl-2-iminothiolane hydrochloride]	6.9
Cl.N=C1CCC(c2ccccc2)S1 (stereo not drawn) [phenyl-2IT, 5-Phenyl-2-iminothiolane hydrochloride]	1.5
Cl.N=C1CCCS1 [Compound 2IT, 2-iminothiolane hydrochloride, reference compound]	10.2

System: 791 mAb
Assay: Rate of reaction of the 2-iminothiolanes with 791 mAb, coupled with DTNB, 412nm
Conditions: 0.5 mM 2-iminothiolane, 20 μM 791 mAb, 2.5 mM DTNB, pH 7.5; 25° C.
Description: c. The rate of reaction of the 2-iminothiolanes (0.5 mM) with 791 mAb (20 μM), as monitored by coupling the reaction with 2.5 mM DTNB in 0.1 M NaPO4, 0.1 M NaCl, pH 7.5, and monitoring the change in absorbance at 412nm.

Structure (SMILES)	Reaction rate, 791, k × 10^5
CC(C)(C)C1CCC(=N)S1.Cl (stereo not drawn) [t-butyl-2IT, 5-t-Butyl-2-iminothiolane hydrochloride]	7.4 s^-1 (k × 10^5)
Cl.N=C1CCC2(CCCCC2)S1 [spiro-2IT, 2-Imino-1-thiaspiro[4.5]decane hydrochloride]	4.6 s^-1 (k × 10^5)
N=C1CC2CCCCC2S1 (stereo not drawn) [ring-2IT, hydrochloride]	5.6 s^-1 (k × 10^5)
CC1CCC(=N)S1.Cl (stereo not drawn) [methyl-2IT, 5-Methyl-2-iminothiolane hydrochloride]	4.0 s^-1 (k × 10^5)
CC1(C)CCC(=N)S1.Cl [dimethyl-2IT, 5,5-Dimethyl-2-iminothiolane hydrochloride]	4.6 s^-1 (k × 10^5)
Cl.N=C1CCC(c2ccccc2)S1 (stereo not drawn) [phenyl-2IT, 5-Phenyl-2-iminothiolane hydrochloride]	8.8 s^-1 (k × 10^5)
Cl.N=C1CCCS1 [Compound 2IT, 2-iminothiolane hydrochloride, reference compound]	5.0 s^-1 (k × 10^5)

System: not given
Assay: not given
Conditions: cited from earlier work

Structure (SMILES)	solubility in water, in words (background)
CC(SSc1ccccn1)c1ccc(C(=O)ON2C(=O)CCC2=O)cc1 (stereo not drawn) [SMPT, 4-succinimidyloxycarbonyl-α-methyl-α-(2-pyridyldithio)-toluene]	low solubility in water
CC(SS(=O)(=O)O)c1ccc(C(=O)ON2C(=O)CCC2=O)cc1 (stereo not drawn) [SMBT, sodium S-4-succinimidyloxycarbonyl-α-methyl benzyl thiosulfate]	low solubility in water
